Source: patent US7034035B2, “Fungicidal mono-, bi-, and tri-cycloheteroalkyl amides and their compositions, methods of use and preparation” (priority 1999, dated 2006)
Read-outs that look alike come from different tables or passages of the source.

How the values were obtained:
[1] = test system: Puccinia recondita—PUCCRT; assay: Brown Rust of Wheat, in vivo whole plant, 24 Hour Protectant; details: Puccinia; wheat (cultivar Yuma), sprayed at 100 ppm, inoculated after 24 hours; control of fungal infection vs untreated plants; read-out: PUCCRT in vivo 1 Day Protectant
[2] = test system: Leptosphaeria nodorum—LEPTNO; assay: Glume Blotch of Wheat, in vivo whole plant, 24 Hour Protectant; details: Leptosphaeria, 24 h, inoculated after 24 hours, read-out: LEPTNO in vivo 1 Day Protectant
[3] = test system: Rhizoctonia solani (RHIZSO); assay: microbe, parasite or virus in culture; format: cell-based
Ustilago maydis (USTIMA) = assay: microbe, parasite or virus in culture; format: cell-based
[4] = wheat (cultivar Yuma), sprayed at 100 ppm, control of fungal infection vs untreated plants
[5] = wheat plants sprayed at 100 ppm, control vs untreated plants

| SMILES | pest or weed control at 100 ppm [2, 4] [%] | RHIZSO in vitro Growth Inhibition [3] | USTIMA in vitro Growth Inhibition (Ustilago maydis (USTIMA)) | other results |
| --- | --- | --- | --- | --- |
| COc1ccnc(C(=O)NC(COC(=O)C(C)Cc2ccccc2)C(=O)OC(C)C)c1O (centres unmarked) [Compound 351] |  |  |  | pest or weed control at 100 ppm [1]: 75 to 100% |
| COc1ccnc(C(=O)N[C@H]2COC(=O)[C@H](Cc3ccccc3)[C@@H](OC(=O)C3CC3)[C@H](C)OC2=O)c1O [Compound 387] | 75 to 100 |  |  |  |
| COc1ccnc(C(=O)N[C@H]2COC(=O)[C@H](Cc3ccccc3)[C@@H](OC(=O)OC(C)C)[C@H](C)OC2=O)c1O [Compound 401] | 75 to 100 |  |  |  |
| COc1ccnc(C(=O)N[C@H]2COC(=O)[C@H](Cc3ccccc3)[C@@H](OC(=O)NC(C)(C)C)[C@H](C)OC2=O)c1O [Compound 400] | 75 to 100 |  |  |  |
| COc1ccnc(C(=O)N[C@@H](Cc2ccc(OCc3ccccc3)cc2)C(=O)O)c1O [Compound 337] | 75 to 100 | − (key: +: at least 80% growth inhibition; −: less than 80% growth inhibition) | − (key: +: at least 80% growth inhibition; −: less than 80% growth inhibition) |  |
| COc1ccnc(C(=O)N[C@H]2COC(=O)[C@H](Cc3ccccc3)[C@@H](OC(=O)C(C)(C)C)[C@H](C)OC2=O)c1O [Compound 388] | 75 to 100 |  |  |  |
| COc1ccnc(C(=O)N[C@H]2CC3CC2[C@H](COCc2cccc(C(F)(F)F)c2)C3)c1O (some centres unmarked) [Compound 294] | 75 to 100 | + (key: +: at least 80% growth inhibition; −: less than 80% growth inhibition) | − (key: +: at least 80% growth inhibition; −: less than 80% growth inhibition) |  |
| COc1ccnc(C(=O)Nc2ccc(OCc3ccc(C(F)(F)F)cc3)cc2)c1O [Compound 448] | 75 to 100 |  |  |  |
| COc1ccnc(C(=O)N[C@H]2CC[C@H]3C4CCC(CC4)[C@H]3C2=O)c1O [Compound 292] | 75 to 100 | − (key: +: at least 80% growth inhibition; −: less than 80% growth inhibition) | − (key: +: at least 80% growth inhibition; −: less than 80% growth inhibition) |  |
| COc1ccnc(C(=O)N[C@H]2COC(=O)[C@H](Cc3ccccc3)[C@@H](OC(=O)NC(C)C)[C@H](C)OC2=O)c1O [Compound 399] | 75 to 100 |  |  |  |
| COc1ccnc(C(=O)N[C@H]2COC(=O)[C@H](Cc3ccccc3)[C@@H](OC(=O)C3CCCC3)[C@H](C)OC2=O)c1O [Compound 391] | 75 to 100 |  |  |  |
| CC(C)C(=O)O[C@H]1[C@H](C)OC(=O)[C@@H](NC(=O)c2nccnc2O)COC(=O)[C@@H]1Cc1ccccc1 [Compound 534] |  |  |  | pest or weed control at 100 ppm [2, 5]: 75 to 100% |
| COc1ccnc(C(=O)Nc2ccc(Oc3ccc(C)cc3)cc2)c1O [Compound 417] | 75 to 100 |  |  |  |
| CC(C)C(=O)O[C@H]1[C@H](C)OC(=O)[C@@H](NC(=O)c2nscc2O)COC(=O)[C@@H]1Cc1ccccc1 [Compound 550] |  |  |  | pest or weed control at 100 ppm [2, 5]: 75 to 100% |
| COc1ccnc(C(=O)N[C@H]2COC(=O)[C@H](Cc3ccccc3)[C@@H](OC(C)=O)[C@H](C)OC2=O)c1O [Compound 385] | 75 to 100 |  |  |  |
| COc1ccnc(C(=O)NC2CSCC(c3ccccc3)C2)c1O (centres unmarked) [Compound 324] | 75 to 100 | + (key: +: at least 80% growth inhibition; −: less than 80% growth inhibition) | + (key: +: at least 80% growth inhibition; −: less than 80% growth inhibition) |  |
| COc1ccnc(C(=O)Nc2ccc(OC3CC(C)(C)CC(C)(C)C3)cc2)c1O [Compound 458] |  |  |  | pest or weed control at 100 ppm [2, 5]: 75 to 100% |
| CC(C)C(=O)O[C@H]1[C@H](C)OC(=O)[C@@H](NC(=O)c2ccncc2O)COC(=O)[C@@H]1Cc1ccccc1 [Compound 513] |  |  |  | pest or weed control at 100 ppm [2, 5]: 75 to 100% |
| COc1nc(O)c(C(=O)N[C@H]2COC(=O)[C@H](Cc3ccccc3)[C@@H](OC(=O)C(C)C)[C@H](C)OC2=O)nc1Cl [Compound 537] |  |  |  | pest or weed control at 100 ppm [2, 5]: 75 to 100% |
| COc1ccnc(C(=O)NC2CC(C)(C)CC3(C2)CC3(F)F)c1O (centres unmarked) [Compound 255] | 75 to 100 | − (key: +: at least 80% growth inhibition; −: less than 80% growth inhibition) | − (key: +: at least 80% growth inhibition; −: less than 80% growth inhibition) |  |
| COc1ccnc(C(=O)NC2CCCC2O)c1O (centres unmarked) [Compound 248] |  | − (key: +: at least 80% growth inhibition; −: less than 80% growth inhibition) | − (key: +: at least 80% growth inhibition; −: less than 80% growth inhibition) |  |
| CC1(C)CC(NC(=O)c2ncccc2O)CC(C)(C2CC2)C1 (centres unmarked) [Compound 204] |  | − (key: +: at least 80% growth inhibition; −: less than 80% growth inhibition) | − (key: +: at least 80% growth inhibition; −: less than 80% growth inhibition) |  |
| COc1ccnc(C(=O)NC2CC(C)(C)CC(C)(C(=O)OCCC(C)(C)C)C2)c1O (centres unmarked) [Compound 261] |  | − (key: +: at least 80% growth inhibition; −: less than 80% growth inhibition) | − (key: +: at least 80% growth inhibition; −: less than 80% growth inhibition) |  |
| COc1cccc(CNC(=O)c2ncccc2O)c1OC [Compound 227] |  | − (key: +: at least 80% growth inhibition; −: less than 80% growth inhibition) | − (key: +: at least 80% growth inhibition; −: less than 80% growth inhibition) |  |
